This passage reports GI50 and TGI results from PubChem BioAssay (NCI).

Test systems include 786-0 renal; A549 NSCLC; HCT-116 colon; HOP-62 NSCLC; HOP-92 NSCLC; HT29 colon; M14 melanoma; MOLT-4 leukemia; NCI-H522 lung; SF-539 CNS.
Test in all cases: growth of human tumour cells (NCI), 48 h

Values joined by “and” are separate entries in the source; they are usually repeats but may differ in a detail not shown here. Identical values can stand only once.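 Five compound concentrations were applied to cells in 96-well plates for 48 hours; endpoints were derived by simple linear interpolation of the resulting dose-response curve. GI50: concentration for 50% inhibition of growth. The concentration for full growth arrest is given as TGI.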

With `C[C@H]1[C@H](C)CC[C@]2(C(=O)O)CC[C@]3(C)C(=CC[C@@H]4[C@@]5(C)C/C(=C/c6ccco6)C(=O)C(C)(C)[C@@H]5CC[C@]43C)[C@H]12`, the GI50 is 4.09 µM in the assay on 786-0 renal; 3.71 µM in the assay with A549 NSCLC; 3.1 µM in the assay with HCT-116 colon; 3.78 µM in the assay on HOP-62 NSCLC; 2.54 µM in the assay with HOP-92 NSCLC; 5.3 µM in the assay with HT29 colon. For the same molecule, the GI50 with M14 melanoma was 5.27 µM; in the assay on MOLT-4 leukemia, 3.17 µM; in the assay with NCI-H522 lung it was 6.35 µM; with SF-539 CNS, 4.67 µM. Besides, the TGI with 786-0 renal was found to be 19.1 µM; in the assay on A549 NSCLC, 16.8 µM; in the assay with HCT-116 colon it was 11.7 µM; in the assay with HOP-62 NSCLC it was 16.9 µM; in the assay on HOP-92 NSCLC, 12.5 µM; in the assay with HT29 colon it was 34.6 µM. Also, the TGI in the assay on M14 melanoma stood at 21.2 µM; with MOLT-4 leukemia it was 14 µM; with NCI-H522 lung, 23.6 µM; in the assay on SF-539 CNS, 16.8 µM.

Take `NCc1nnn(Cc2ccccc2)c1N`: the TGI with 786-0 renal, in the assay with A549 NSCLC, with HCT-116 colon, with HOP-62 NSCLC, in the assay on HOP-92 NSCLC and in the assay on HT29 colon was > 100 µM throughout. For the same molecule, the TGI with M14 melanoma, with MOLT-4 leukemia, in the assay on NCI-H522 lung and in the assay with SF-539 CNS was > 100 µM throughout.

Take `COC1=CC(c2ccc[nH]2)=N/C1=C\c1ccc[nH]1`: the GI50 was 0.192 µM in the assay on 786-0 renal; 0.201 µM in the assay with A549 NSCLC; 0.0238 µM in the assay on HCT-116 colon; 0.27 µM with HOP-62 NSCLC; 0.199 µM in the assay with HOP-92 NSCLC; < 0.013 µM with HT29 colon. In addition, the GI50 is 0.0562 µM in the assay with M14 melanoma, 0.0317 µM in the assay on MOLT-4 leukemia, 0.284 µM with NCI-H522 lung and 0.295 µM with SF-539 CNS. Moreover, the TGI with 786-0 renal is 0.712 µM; in the assay with A549 NSCLC it was 12.6 µM; with HOP-62 NSCLC, 9.27 µM; in the assay with HOP-92 NSCLC it was 1.26 µM; in the assay with HT29 colon, 3.93 µM; in the assay on M14 melanoma it was 0.629 µM. The TGI with MOLT-4 leukemia was 33.7 µM; in the assay with NCI-H522 lung, 2.68 µM; in the assay on SF-539 CNS, 1.87 µM.

In the case of `Cc1ccc(S(=O)(=O)N2CCc3ccc(O)c4c3C2Cc2cc(Cl)ccc2-4)cc1` (stereo unspecified), the GI50 is 2.3 µM in the assay on 786-0 renal; 1.16 µM with A549 NSCLC; 1.11 µM in the assay with HCT-116 colon; 1.56 µM in the assay on HOP-62 NSCLC; 0.354 µM in the assay with HOP-92 NSCLC; 5.61 µM in the assay on HT29 colon. Moreover, the GI50 is 0.88 µM with M14 melanoma, 1.51 µM in the assay on MOLT-4 leukemia, 0.827 µM in the assay on NCI-H522 lung and 0.792 µM with SF-539 CNS. Besides, the TGI in the assay with 786-0 renal is 9.59 µM; with A549 NSCLC, 5.44 µM; with HCT-116 colon, 4.38 µM; in the assay with HOP-62 NSCLC it was 5.65 µM; in the assay on HOP-92 NSCLC it was 3.62 µM; in the assay on HT29 colon, 10.8 µM. The TGI in the assay on M14 melanoma was found to be 2.96 µM; with MOLT-4 leukemia, 10.2 µM; with NCI-H522 lung, 2.29 µM; with SF-539 CNS, 2.83 µM.

In the case of `CO[C@@H]1[C@H](OC(=O)NC(=O)CCl)CC[C@]2(CO2)[C@H]1[C@@]1(C)O[C@@H]1CC=C(C)C`, the TGI with 786-0 renal is 30 µM and 47.7 µM; with A549 NSCLC it was 44.2 µM; in the assay with HCT-116 colon it was 28.7 µM and 40.9 µM; in the assay with HOP-62 NSCLC, 41.1 µM and 44.9 µM; in the assay on HOP-92 NSCLC it was 38.5 µM; in the assay with HT29 colon it was 27.5 µM and 88.9 µM. The TGI with M14 melanoma was 32.3 µM and 40.5 µM; in the assay with MOLT-4 leukemia, 28.2 µM and 8.2 µM; in the assay with NCI-H522 lung, 3.99 µM and 16.8 µM and 33.8 µM; with SF-539 CNS it was 23.8 µM and 46.9 µM. In addition, the GI50 in the assay on A549 NSCLC is 4.25 µM; in the assay on HCT-116 colon it was 2.77 µM and 11.2 µM and 2.96 µM; in the assay on HOP-62 NSCLC, 9.11 µM and 0.958 µM; in the assay with HT29 colon, 8.62 µM and 20.5 µM; in the assay on MOLT-4 leukemia, 3.31 µM; in the assay with NCI-H522 lung, 1.23 µM and 7.41 µM. Moreover, in the assay with SF-539 CNS, the GI50 was 21.3 µM.

As to `COc1ccc2c(c1)CCC1C2CC[C@]2(C)/C(=N/OC(=O)Cc3ccccc3)CCC12` (stereo partly specified), the GI50 in the assay with 786-0 renal is 18.3 µM; in the assay on A549 NSCLC it was 19.3 µM; in the assay with HCT-116 colon, 13.4 µM; in the assay with HOP-62 NSCLC, 17.2 µM; with HOP-92 NSCLC, 25.2 µM; in the assay on HT29 colon, 22.6 µM. Moreover, the GI50 is 16.8 µM in the assay with M14 melanoma, 17.2 µM in the assay on MOLT-4 leukemia, 12.2 µM in the assay with NCI-H522 lung and 21.4 µM in the assay on SF-539 CNS. The TGI in the assay on 786-0 renal was 33.3 µM; in the assay with A549 NSCLC it was 42.7 µM; in the assay with HCT-116 colon, 26.2 µM; in the assay with HOP-62 NSCLC, 31.6 µM; with HOP-92 NSCLC it was 81 µM; in the assay on HT29 colon, > 100 µM. In addition, the TGI with M14 melanoma is 32.9 µM; with MOLT-4 leukemia it was 35.8 µM; in the assay on NCI-H522 lung it was 32.8 µM; in the assay with SF-539 CNS, 42.8 µM.

On to `Cc1nc(NC(=O)CCCN2C(=O)c3cccc4cccc(c34)C2=O)sc1C(=O)Nc1cc(C(=O)NCCCN(C)C)n(C)c1`, for which the GI50 in the assay with 786-0 renal, in the assay with A549 NSCLC, in the assay on HCT-116 colon, with HOP-62 NSCLC, with HOP-92 NSCLC and in the assay with HT29 colon was > 100 µM in each case. The GI50 in the assay on M14 melanoma, in the assay on MOLT-4 leukemia, in the assay on NCI-H522 lung and with SF-539 CNS was > 100 µM throughout. The TGI with 786-0 renal, in the assay on A549 NSCLC, with HCT-116 colon, in the assay with HOP-62 NSCLC, with HOP-92 NSCLC and in the assay on HT29 colon was > 100 µM in each case. Also, the TGI in the assay on M14 melanoma, with MOLT-4 leukemia, in the assay on NCI-H522 lung and in the assay with SF-539 CNS was > 100 µM each time.

For the molecule `CCn1cnc2c(Nc3cccc(Cl)c3)nc(N[C@@H]3CCCC[C@@H]3N)nc21`, the GI50 was 1.83 µM in the assay on 786-0 renal; 2.09 µM in the assay on A549 NSCLC; 1.12 µM in the assay on HCT-116 colon; 1.52 µM in the assay with HOP-62 NSCLC; 1.04 µM with HOP-92 NSCLC; 1.91 µM with HT29 colon. Moreover, the GI50 in the assay with M14 melanoma is 1.44 µM; with MOLT-4 leukemia it was 2.24 µM; in the assay on NCI-H522 lung, 1.64 µM; with SF-539 CNS, 1.42 µM. The TGI was 5.05 µM in the assay on 786-0 renal; 8.6 µM in the assay with A549 NSCLC; 2.87 µM in the assay on HCT-116 colon; 3.71 µM with HOP-62 NSCLC; 3.57 µM in the assay with HOP-92 NSCLC; 5.87 µM with HT29 colon. For the same molecule, the TGI with M14 melanoma came out at 2.98 µM; in the assay on MOLT-4 leukemia it was 7.27 µM; in the assay with NCI-H522 lung it was 3.8 µM; in the assay on SF-539 CNS, 2.8 µM.
